# Test results: EP0751957B1, “PEPTIDE FRAGMENTS OF MICROBIAL STRESS PROTEINS AND PHARMACEUTICAL COMPOSITION MADE THEREOF FOR THE TREATMENT AND PREVENTION OF INFLAMMATORY DISEASES” (priority 1994, dated 2004)
# What was measured:
# Assay type in all cases: cell-based, Lewis rats
# [1] = tested on: primed lymph node cells (PLNC); test: T cell proliferation assay, PLNC from peptide-immunised rats; details: PLNC 10 days after immunisation with peptide 176-190 (100 µg/DDA); in vitro peptide 20 µg/ml
# Protocol: (§1) Immunisations with synthetic peptides and primed lymph node populations: Rats were immunised with 50 µg of synthetic peptide in PBS/DDA in each hind footpad (i.e. 50 µg/footpad, 100 µg/rat). Ten days later, draining popliteal lymph nodes were removed, disaggregated, washed three times and used as a source of primed lymph node cells (PLNC). In some experiments, PLNC were derived as pooled inguinal and popliteal lymph nodes from AA rats 35-42 days post Mt immunisation.
# (§2) T cell proliferation assays: PLNC were cultured in triplicate in 200 µl flat bottom microtitre wells (Costar) at 2 x 10^5 cells per well with or without antigen. In initial experiments PLNC were tested for responsiveness to individual peptides at concentrations of 5 and 20 µg/ml, and Mt, hsp65 and PPD over a range of concentrations. Concanavalin A (2 µg/ml) was used as a positive control for T cell proliferation. Cultures were incubated for 96 h at 37°C in a humidified atmosphere of 5% CO2. Cultures were pulsed for the final 16 h with [^3H] TdR (Amersham, U.K., 1 uCi/well) and TdR uptake measured using a liquid scintillation β counter. Assays using T cell lines were performed as above using 2 x 10^4 line cells per well with irradiated (30 Gy) syngeneic accessory cells (either 3 x 10^5 splenocytes/well or 10^6 thymocytes/well). Results are expressed as mean counts per minute (cpm) of triplicate cultures. In experiments where responses to Ag were low, responses were considered significant if the stimulation index (S.I. = […]) was greater than two and Student's t tests gave p < 0.01.
# To determine whether immunisation of rats with synthetic peptides was effective at priming for T cell reactivity to hsp65 epitopes, in vitro proliferative responses following immunisation with 100 µg of peptide each containing individual T cell epitopes were examined. PLNC isolated ten days after immunisation were tested for response to the immunising peptide, overlapping peptides and to hsp65 (Table II). PLNC responses were observed after immunisation with seven of the nine peptides. Responses were not seen after immunisation with peptides 386-400 and 511-525.
# T cell responses by immunisation with hsp65 peptides. Rats were immunised with synthetic peptides containing individual hsp65 epitopes (100 µg peptide/DDA per rat). Ten days later PLNC were isolated and tested for responses to overlapping peptides (20 µg/ml). Peptide-specific T cell lines were generated by bulk in vitro stimulation of PLNC with immunising peptide. Lines were tested for responses to overlapping peptides (10 µg/ml). […] Results are expressed as mean cpm of triplicate cultures. All SEM were less than 20%.
# RT1.B^1 molecules = test: Inhibition of proliferation of T cell lines with other Ag specificities (MHC affinity, preliminary); details: preliminary experiments, data not shown
# Protocol: The relatively low quantities of hsp65 present in the Mt preparation might result in focusing of T cell responses on hsp65 epitopes with higher affinities for MHC class II molecules. […] Thus, when Ag concentrations are limited (i.e. following Mt immunisation) dominance of T cell epitopes might be more dependent on their relative MHC binding affinities, whereas following immunisation with large quantities of specific antigen (50-100 µg hsp65 per rat) relative dominance might not be simply a function of affinity for MHC. Clearly, antigen processing of the intact hsp65 molecule will determine the peptide fragments generated during in vivo priming, and the naturally processed fragments will not be identical to the synthetic 15mers used in this study. Also the molecular context of hsp65 (i.e recombinant monomeric hsp65, or the multimeric native protein in the Mt preparation) could affect antigen processing and influence the pattern of epitope recognition.
# [2] = tested on: PLNC from preimmunised rats; test: T cell proliferation assay, PLNC of peptide-preimmunised AA rats 42 days after Mt; details: 42 days after Mt administration
# Protocol: as §1, §2
# PLNC from preimmunised rats were tested for responsiveness to hsp65 epitopes 42 days after Mt administration (Fig. 8). […] Responses to peptide 176-190 containing the AA-associated epitope were found in all PLNC populations (and enhanced after 176-190 preimmunisation) with one exception.
substance,measurement,setting,value
peptide 176-190: synthetic 15mer of mycobacterial hsp65 containing the AA-associated epitope 180-188,CPM PLNC,[1],57707 cpm
same,affinity for RT1.B^1 molecules relative to peptides 211-225 or 226-240,RT1.B^1 molecules,higher affinity
same,"PLNC response to peptide, rats preimmunised with PBS/DDA alone",[2],significant responses
same,"PLNC response to peptide, rats preimmunised with peptide 256-270",[2]; rats protected from AA,total lack of response
